Test results published in patent US10029992B2, “Diaminotriazine compounds and their use as herbicides” (BASF SE, priority 2014, dated 2018).

Experiments:
Test in all cases: Greenhouse experiment, pre-emergence treatment
Conditions in all cases: pre-emergence method
AMARE = format: in vivo, Amaranthus retroflexus
Description: (§1) The seeds of the test plants were sown separately for each species. For the pre-emergence treatment, the active ingredients, which had been suspended or emulsified in water, were applied directly after sowing by means of finely distributing nozzles. The containers were irrigated gently to promote germination and growth and subsequently covered with transparent plastic hoods until the plants had rooted. This cover caused uniform germination of the test plants, unless this had been impaired by the active ingredients. Depending on the species, the plants were kept at 10-25° C. or 20-35° C., respectively. The test period extended over 2 to 4 weeks. During this time, the plants were tended, and their response to the individual treatments was evaluated. Evaluation was carried out using a scale from 0 to 100. 100 means no emergence of the plants, or complete destruction of at least the aerial moieties, and 0 means no damage, or normal course of growth. A moderate herbicidal activity is given at values of at least 60, a good herbicidal activity is given at values of at least 70, and a very good herbicidal activity is given at values of at least 85. […] [table]

APESV = format: in vivo, Apera spica-venti
Description: (§2) The culture containers used were plastic flowerpots containing loamy sand with approximately 3.0% of humus as the substrate. The seeds of the test plants were sown separately for each species.
(§3) For the pre-emergence treatment, the active ingredients, which had been suspended or emulsified in water, were applied directly after sowing by means of finely distributing nozzles. The containers were irrigated gently to promote germination and growth and subsequently covered with transparent plastic hoods until the plants had rooted. This cover caused uniform germination of the test plants, unless this had been impaired by the active ingredients.
(§4) Depending on the species, the plants were kept at 10-25° C. or 20-35° C., respectively.
(§5) The test period extended over 2 to 4 weeks. During this time, the plants were tended, and their response to the individual treatments was evaluated.
(§6) Evaluation was carried out using a scale from 0 to 100. 100 means no emergence of the plants, or complete destruction of at least the aerial moieties, and 0 means no damage, or normal course of growth. A moderate herbicidal activity is given at values of at least 60, a good herbicidal activity is given at values of at least 70, and a very good herbicidal activity is given at values of at least 85.
(§7) The plants used in the greenhouse experiments were of the following species: […]

ECHCG = format: in vivo, Echinochloa crus-galli
Description: as §2, §3, §4, §5, §6, §7

SETFA = format: in vivo, Setaria faberi
Description: as §1

SMILES: CC(C)(F)c1nc(N)nc(Nc2c(F)cccc2Oc2cccc(F)c2)n1 [Example 10]
- herbicidal activity against AMARE (AMARE; application rate 0.5 kg/ha): very good (a very good herbicidal activity is given at values of at least 85)
- herbicidal activity against APESV (APESV; application rate 0.5 kg/ha): very good (a very good herbicidal activity is given at values of at least 85)
- herbicidal activity against ECHCG (ECHCG; application rate 0.5 kg/ha): very good (a very good herbicidal activity is given at values of at least 85)

SMILES: Cc1cc(C)cc(Oc2cccc(F)c2Nc2nc(N)nc(CC(C)C)n2)c1 [Example 17]
- herbicidal activity against APESV (APESV; application rate 1000 g/ha): good (a good herbicidal activity is given at values of at least 70)
- herbicidal activity against SEFTA (SETFA; application rate 1000 g/ha): very good (a very good herbicidal activity is given at values of at least 85)

SMILES: Cc1cc(C)cc(Oc2cccc(F)c2Nc2nc(N)nc(C(C)C)n2)c1 [Example 19]
- herbicidal activity against APESV (APESV; application rate 0.25 kg/ha): very good (a very good herbicidal activity is given at values of at least 85)
- herbicidal activity against APESV (APESV; application rate 250 g/ha): very good (a very good herbicidal activity is given at values of at least 85)
- herbicidal activity against ECHCG (ECHCG; application rate 0.25 kg/ha): very good (a very good herbicidal activity is given at values of at least 85)
- herbicidal activity against ECHCG (ECHCG; application rate 250 g/ha): very good (a very good herbicidal activity is given at values of at least 85)
- herbicidal activity against SETFA (SETFA; application rate 0.25 kg/ha): very good (a very good herbicidal activity is given at values of at least 85)
- herbicidal activity against SEFTA (SETFA; application rate 250 g/ha): very good (a very good herbicidal activity is given at values of at least 85)

SMILES: COc1cc(OC)cc(Oc2cccc(F)c2Nc2nc(N)nc(C(C)(C)F)n2)c1 [Example 27]
- herbicidal activity against APESV (APESV; application rate 0.25 kg/ha): very good (a very good herbicidal activity is given at values of at least 85)
- herbicidal activity against ECHCG (ECHCG; application rate 0.25 kg/ha): very good (a very good herbicidal activity is given at values of at least 85)
- herbicidal activity against SETFA (SETFA; application rate 0.25 kg/ha): very good (a very good herbicidal activity is given at values of at least 85)

SMILES: CCC(C)(F)c1nc(N)nc(Nc2c(F)cccc2Oc2cc(C)cc(C)c2)n1 (centres unmarked) [Example 32]
- herbicidal activity against APESV (APESV; application rate 0.25 kg/ha): very good (a very good herbicidal activity is given at values of at least 85)
- herbicidal activity against ECHCG (ECHCG; application rate 0.25 kg/ha): very good (a very good herbicidal activity is given at values of at least 85)
- herbicidal activity against SETFA (SETFA; application rate 0.25 kg/ha): very good (a very good herbicidal activity is given at values of at least 85)

SMILES: Cc1cc(C)cc(Oc2cccc(Cl)c2Nc2nc(N)nc(C(C)(C)F)n2)c1 [Example 37]
- herbicidal activity against APESV (APESV; application rate 0.25 kg/ha): very
- herbicidal activity against ECHCG (ECHCG; application rate 0.25 kg/ha): good (a good herbicidal activity is given at values of at least 70)

SMILES: CC(C)(F)c1nc(N)nc(Nc2c(F)c(F)cc(-c3ccccc3)c2F)n1 [Example 44]
- herbicidal activity against AMARE (AMARE; application rate 0.5 kg/ha): good to very good
- herbicidal activity against SETFA (SETFA; application rate 0.5 kg/ha): good (a good herbicidal activity is given at values of at least 70)

SMILES: CN(C)c1cc(Oc2cccc(F)c2Nc2nc(N)nc(C(C)(C)F)n2)cc(C(F)(F)F)c1 [Example 80]
- herbicidal activity against ECHCG (ECHCG; application rate 125 g/ha): very good (a very good herbicidal activity is given at values of at least 85)
- herbicidal activity against SETFA (SETFA; application rate 125 g/ha): very good (a very good herbicidal activity is given at values of at least 85)

SMILES: Cc1cc(OCC2CCC2)cc(Oc2cccc(F)c2Nc2nc(N)nc(C(C)(C)F)n2)c1 [Example 83]
- herbicidal activity against AMARA (AMARE; application rate 250 g/ha): very good (a very good herbicidal activity is given at values of at least 85)
- herbicidal activity against APESV (APESV; application rate 250 g/ha): good (a good herbicidal activity is given at values of at least 70)
- herbicidal activity against ECHCG (ECHCG; application rate 250 g/ha): good (a good herbicidal activity is given at values of at least 70)

SMILES: COc1cc(I)cc(Oc2cccc(F)c2Nc2nc(N)nc(C(C)(C)F)n2)c1 [Example 84]
- herbicidal activity against AMARA (AMARE; application rate 250 g/ha): very good (a very good herbicidal activity is given at values of at least 85)
- herbicidal activity against ECHCG (ECHCG; application rate 250 g/ha): very good (a very good herbicidal activity is given at values of at least 85)
- herbicidal activity against SETFA (SETFA; application rate 250 g/ha): very good (a very good herbicidal activity is given at values of at least 85)

SMILES: Cc1cc(Oc2cccc(F)c2Nc2nc(N)nc(C(C)(C)F)n2)cc(OC2CCCC2)c1 [Example 85]
- herbicidal activity against AMARA (AMARE; application rate 250 g/ha): very good (a very good herbicidal activity is given at values of at least 85)

SMILES: Cc1cc(Oc2cccc(F)c2Nc2nc(N)nc(C(C)(C)F)n2)cc(OC2CCCCC2)c1 [Example 86]
- herbicidal activity against SEFTA (SETFA; application rate 500 g/ha): good (a good herbicidal activity is given at values of at least 70)

SMILES: CC(C)(F)c1nc(N)nc(Nc2c(F)cccc2Oc2cc(-c3ccccc3)cc(C(F)(F)F)c2)n1 [Example 87]
- herbicidal activity against AMARA (AMARE; application rate 500 g/ha): very good (a very good herbicidal activity is given at values of at least 85)
- herbicidal activity against ECHCG (ECHCG; application rate 500 g/ha): very good (a very good herbicidal activity is given at values of at least 85)
- herbicidal activity against SETFA (SETFA; application rate 500 g/ha): very good (a very good herbicidal activity is given at values of at least 85)

SMILES: CC(C)(F)c1nc(N)nc(Nc2c(F)cccc2Oc2cccc(C(F)(F)F)c2)n1 [Example 88]
- herbicidal activity against AMARA (AMARE; application rate 500 g/ha): very good (a very good herbicidal activity is given at values of at least 85)
- herbicidal activity against ECHCG (ECHCG; application rate 500 g/ha): very good (a very good herbicidal activity is given at values of at least 85)
- herbicidal activity against SETFA (SETFA; application rate 500 g/ha): very good (a very good herbicidal activity is given at values of at least 85)

SMILES: CCc1cccc(Oc2cccc(F)c2Nc2nc(N)nc(C(C)(C)F)n2)c1 [Example 90]
- herbicidal activity against AMARE (AMARE; application rate 500 g/ha): very good (a very good herbicidal activity is given at values of at least 85)
- herbicidal activity against APESV (APESV; application rate 500 g/ha): very good (a very good herbicidal activity is given at values of at least 85)
- herbicidal activity against ECHCG (ECHCG; application rate 500 g/ha): very good (a very good herbicidal activity is given at values of at least 85)

SMILES: COC(=O)c1cccc(Oc2cccc(F)c2Nc2nc(N)nc(C(C)(C)F)n2)c1 [Example 91]
- herbicidal activity against APESV (APESV; application rate 500 g/ha): very good (a very good herbicidal activity is given at values of at least 85)

SMILES: CC(C)(C)c1cccc(Oc2cccc(F)c2Nc2nc(N)nc(C(C)(C)F)n2)c1 [Example 92]
- herbicidal activity against APESV (APESV; application rate 500 g/ha): very good (a very good herbicidal activity is given at values of at least 85)
- herbicidal activity against ECHCG (ECHCG; application rate 500 g/ha): very good (a very good herbicidal activity is given at values of at least 85)
- herbicidal activity against SETFA (SETFA; application rate 500 g/ha): very good (a very good herbicidal activity is given at values of at least 85)

SMILES: CC(C)(F)c1nc(N)nc(Nc2c(F)cccc2Oc2cccc(Br)c2)n1 [Example 93]
- herbicidal activity against APESV (APESV; application rate 500 g/ha): very good (a very good herbicidal activity is given at values of at least 85)
- herbicidal activity against ECHCG (ECHCG; application rate 500 g/ha): very good (a very good herbicidal activity is given at values of at least 85)
- herbicidal activity against SETFA (SETFA; application rate 500 g/ha): very good (a very good herbicidal activity is given at values of at least 85)

SMILES: CC(C)(F)c1nc(N)nc(Nc2c(F)cccc2Oc2cccc(Cl)c2)n1 [Example 94]
- herbicidal activity against APESV (APESV; application rate 500 g/ha): very good (a very good herbicidal activity is given at values of at least 85)
- herbicidal activity against ECHCG (ECHCG; application rate 500 g/ha): very good (a very good herbicidal activity is given at values of at least 85)
- herbicidal activity against SETFA (SETFA; application rate 500 g/ha): very good (a very good herbicidal activity is given at values of at least 85)

SMILES: CC(C)(F)c1nc(N)nc(Nc2c(F)cccc2Oc2cccc(OC(F)F)c2)n1 [Example 95]
- herbicidal activity against APESV (APESV; application rate 500 g/ha): very good (a very good herbicidal activity is given at values of at least 85)
- herbicidal activity against ECHCG (ECHCG; application rate 500 g/ha): very good (a very good herbicidal activity is given at values of at least 85)
- herbicidal activity against SETFA (SETFA; application rate 500 g/ha): very good (a very good herbicidal activity is given at values of at least 85)

SMILES: CC(C)(F)c1nc(N)nc(Nc2c(F)cccc2Oc2cc(OC(F)(F)F)cc(-c3ccccc3)c2)n1 [Example 98]
- herbicidal activity against AMARE (AMARE; application rate 500 g/ha): very good (a very good herbicidal activity is given at values of at least 85)
- herbicidal activity against ECHCG (ECHCG; application rate 500 g/ha): very good (a very good herbicidal activity is given at values of at least 85)
- herbicidal activity against SETFA (SETFA; application rate 500 g/ha): very good (a very good herbicidal activity is given at values of at least 85)

SMILES: CN(c1ccccc1)c1cccc(F)c1Nc1nc(N)nc(C(C)(C)F)n1 [Example 102]
- herbicidal activity against AMARE (AMARE; application rate 1000 g/ha): very good (a very good herbicidal activity is given at values of at least 85)
- herbicidal activity against ECHCG (ECHCG; application rate 1000 g/ha): very good (a very good herbicidal activity is given at values of at least 85)
- herbicidal activity against SEFTA (SETFA; application rate 1000 g/ha): very good (a very good herbicidal activity is given at values of at least 85)

SMILES: Cc1cccc(N(C)c2cccc(F)c2Nc2nc(N)nc(C(C)(C)F)n2)c1 [Example 103]
- herbicidal activity against AMARE (AMARE; application rate 500 g/ha): very good (a very good herbicidal activity is given at values of at least 85)
- herbicidal activity against ECHCG (ECHCG; application rate 500 g/ha): very good (a very good herbicidal activity is given at values of at least 85)
- herbicidal activity against SEFTA (SETFA; application rate 500 g/ha): very good (a very good herbicidal activity is given at values of at least 85)
